Laboratory results published in patent US20250340552A1, “COMPOUNDS, COMPOSITIONS AND METHODS OF TREATING DISORDERS” (HOTSPOT THERAPEUTICS, INC., priority 2022, published 2025).
Like-named read-outs stand apart in the source and are kept apart here.

Biological target: T1, Cbl-B (Homo sapiens, UniProt Q13191)
T1 construct: MSD-Based Assay for Degradation of Cbl-B in THP-1 Cells; endogenous in cells; host or cells: THP-1 (title) / Jurkat (protocol text)
Assay: MSD-based assay for degradation of Cbl-B in THP-1 cells
Assay type: cell-based
Method in brief: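 THP-1 cells were treated with compound for 24 h at 37 °C. Cbl-B in lysates was quantified by MSD sandwich immunoassay, with anti-Cbl-B capture antibody at 1 ug/mL and SULFO-TAG anti-rabbit detection. Maximal degradation (Dmax) was binned as A >70%, B 50–70%, C 30–50%, D <30%.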

[1] = Cbl-B degradation, Jurkat cells seeded (heading: THP-1 cells), 24 hours incubation, MSD readout
[2] = Cbl-B degradation, Jurkat cells seeded (heading: THP-1 cells), 24 hours incubation, MSD readout, read-out: Dmax

T1 sequence (Q13191 whole entry): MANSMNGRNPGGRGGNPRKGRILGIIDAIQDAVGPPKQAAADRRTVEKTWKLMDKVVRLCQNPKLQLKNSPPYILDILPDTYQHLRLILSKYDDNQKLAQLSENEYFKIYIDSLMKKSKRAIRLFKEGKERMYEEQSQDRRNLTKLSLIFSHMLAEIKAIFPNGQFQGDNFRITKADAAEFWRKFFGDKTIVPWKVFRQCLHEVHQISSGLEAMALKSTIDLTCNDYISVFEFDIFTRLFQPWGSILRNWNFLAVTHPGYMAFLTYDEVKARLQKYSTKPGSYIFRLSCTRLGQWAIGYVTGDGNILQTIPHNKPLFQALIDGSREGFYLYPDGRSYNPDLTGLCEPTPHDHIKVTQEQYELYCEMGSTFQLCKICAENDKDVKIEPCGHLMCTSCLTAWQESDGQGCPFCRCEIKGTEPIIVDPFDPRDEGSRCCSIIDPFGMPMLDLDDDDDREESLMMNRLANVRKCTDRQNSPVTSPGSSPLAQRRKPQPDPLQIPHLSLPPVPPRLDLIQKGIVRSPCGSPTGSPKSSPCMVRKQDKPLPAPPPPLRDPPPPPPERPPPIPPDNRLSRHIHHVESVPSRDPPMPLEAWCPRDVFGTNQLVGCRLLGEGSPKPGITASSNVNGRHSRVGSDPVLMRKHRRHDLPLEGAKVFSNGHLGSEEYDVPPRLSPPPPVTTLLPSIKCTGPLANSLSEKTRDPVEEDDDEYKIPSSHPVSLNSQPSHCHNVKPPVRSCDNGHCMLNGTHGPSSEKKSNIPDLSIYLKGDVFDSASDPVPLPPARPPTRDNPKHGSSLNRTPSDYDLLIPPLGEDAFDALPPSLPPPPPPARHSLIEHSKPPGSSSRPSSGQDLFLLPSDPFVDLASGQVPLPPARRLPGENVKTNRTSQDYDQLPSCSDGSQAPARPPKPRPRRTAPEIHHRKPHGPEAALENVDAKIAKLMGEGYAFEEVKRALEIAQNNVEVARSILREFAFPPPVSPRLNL

SMILES | DC50 [1] [nM] | Dmax [2] [%] | Dmax (THP-1) [%]
Cn1cnnc1[C@@H](c1cccc(-n2cc3c(C(F)(F)F)cc(COCCCN4CCC(CN5CCN(c6ccc7c(c6)CN([C@H]6CCC(=O)NC6=O)C7=O)CC5)CC4)cn3c2=O)c1)C1CCC1 [Compound 150] | > 10000 | < 30 | 
CN(CCOC1CCN(Cc2cc(C(F)(F)F)c3cn(-c4cccc([C@H](c5nncn5C)C5CCC5)c4)c(=O)n3c2)CC1)C(=O)c1ccc(N2CCC(c3ccc4c(c3)CN([C@H]3CCC(=O)NC3=O)C4=O)CC2)cc1 [Compound 152] | < 30 | > 70 | 
CN(C(=O)c1ccc(CN2CCN(c3ccc4c(c3)CN([C@@H]3CCC(=O)NC3=O)C4=O)CC2)cc1)C1CCN(Cc2cc(C(F)(F)F)c3cn(-c4cccc([C@H](c5nncn5C)C5CCC5)c4)c(=O)n3c2)CC1 [Compound 159] | > 10000 |  | < 30
Cn1cnnc1[C@@H](c1cccc(-n2cc3c(C(F)(F)F)cc(CN4CCC(CCN5CCC(CC6CCN(c7ccc8c(c7)CN([C@@H]7CCC(=O)NC7=O)C8=O)CC6)CC5)CC4)cn3c2=O)c1)C1CCC1 [Compound 163] | > 10000 | < 30 | 
CN(CC1CCN(Cc2cc(C(F)(F)F)c3cn(-c4cccc(C5(Cc6nncn6C)COC5)c4)c(=O)n3c2)CC1)C(=O)c1ccc(N2CCN(c3ccc4c(c3)CN([C@@H]3CCC(=O)NC3=O)C4=O)CC2)cc1 [Compound 165] | 1000 to 10000 | 30 to 50 | 
CO[C@H]1C[C@@](c2cccc(-n3cc4c(C(F)(F)F)cc(CN5CCC(CN(C)C(=O)c6ccc(N7CCN(c8ccc9c(c8)CN([C@@H]8CCC(=O)NC8=O)C9=O)CC7)cc6)CC5)cn4c3=O)c2)(c2nncn2C)C1 [Compound 167] | 1000 to 10000 | < 30 | 
CO[C@H]1C[C@](c2cccc(-n3cc4c(C(F)(F)F)cc(CN5CCC(CN(C)C(=O)c6ccc(N7CCN(c8ccc9c(c8)CN([C@@H]8CCC(=O)NC8=O)C9=O)CC7)cc6)CC5)cn4c3=O)c2)(c2nncn2C)C1 [Compound 168] | > 10000 | < 30 | 
Cn1cnnc1[C@@H](c1cccc(-n2cc3c(C(F)(F)F)cc(CN4CCC(CC(=O)N5CCC(CC6CCN(c7ccc8c(c7)CN([C@@H]7CCC(=O)NC7=O)C8=O)CC6)CC5)CC4)cn3c2=O)c1)C1CCC1 [Compound 175] | > 10000 |  | < 30
Cn1cnnc1[C@@H](c1cccc(-n2cc3c(C(F)(F)F)cc(CN4CCC(CC(=O)N5CCC(Cc6ccc(-c7ccc8c(c7)CN([C@@H]7CCC(=O)NC7=O)C8=O)cc6)CC5)CC4)cn3c2=O)c1)C1CCC1 [Compound 179] | 300 to 1000 |  | 30 to 50
Cn1cnnc1[C@@H](c1cccc(-n2cc3c(C(F)(F)F)cc(CN4CCC(CC(=O)N5CCC(Cc6ccc(-c7ccc8c(c7)CN([C@H]7CCC(=O)NC7=O)C8=O)cc6)CC5)CC4)cn3c2=O)c1)C1CCC1 [Compound 180] | < 30 |  | > 70
Cn1cnnc1[C@@H](c1cccc(-n2cc3c(C(F)(F)F)cc(CN4CCC(CC(=O)N5CCC(c6ccc(-c7ccc8c(c7)CN([C@@H]7CCC(=O)NC7=O)C8=O)cc6)CC5)CC4)cn3c2=O)c1)C1CCC1 [Compound 181] | 300 to 1000 |  | 30 to 50
CN(CC1CCN(Cc2cc3c(c(C(F)(F)F)c2)CN(c2cccc([C@H](c4nncn4C)C4CCC4)c2)C3=O)CC1)C(=O)c1ccc(N2CCN(c3ccc4c(c3)CN([C@@H]3CCC(=O)NC3=O)C4=O)CC2)cc1 [Compound 183] | 30 to 300 | 50 to 70 | 
Cn1cnnc1[C@@H](c1cccc(N2Cc3c(cc(CN4CCC[C@H](OCc5ccc(CC6CCN(c7ccc8c(c7)CN([C@H]7CCC(=O)NC7=O)C8=O)CC6)cc5)C4)cc3C(F)(F)F)C2=O)c1)C1CCC1 [Compound 190] | 300 to 1000 | 30 to 50 | 
Cn1cnnc1CC1(c2cccc(-n3cc4c(C(F)(F)F)cc(CN5CCN(CCc6ccc(N7CCN(c8ccc9c(c8)CN([C@@H]8CCC(=O)NC8=O)C9=O)CC7)cc6)CC5)cn4c3=O)c2)COC1 [Compound 203] | < 30 | > 70 | 
Cn1cnnc1CC1(c2cccc(-n3cc4c(C(F)(F)F)cc(CN5CCC(COCc6ccc(CN7CCN(c8ccc9c(c8)CN([C@@H]8CCC(=O)NC8=O)C9=O)CC7)cc6)CC5)cn4c3=O)c2)COC1 [Compound 215] | 1000 to 10000 | < 30 | 
Cn1cnnc1CC1(c2cccc(-n3cc4c(C(F)(F)F)cc(CN5CCC(COCc6ccc(CN7CCN(c8ccc9c(c8)CN([C@H]8CCC(=O)NC8=O)C9=O)CC7)cc6)CC5)cn4c3=O)c2)COC1 [Compound 216] | < 30 | > 70 | 
CO[C@H]1C[C@](c2cccc(-n3cc4c(C(F)(F)F)cc(CN5CCC(OCCOCc6ccc(CN7CCN(c8ccc9c(c8)CN([C@@H]8CCC(=O)NC8=O)C9=O)CC7)cc6)CC5)cn4c3=O)c2)(c2nncn2C)C1 [Compound 221] | 300 to 1000 | 30 to 50 | 

More lines, main results first:

DC50 [1] [nM] | Dmax [2] [%] | SMILES | Dmax (THP-1) [%]
300 to 1000 | < 30 | CN(C(=O)c1ccc(N2CCN(c3ccc4c(c3)CN([C@H]3CCC(=O)NC3=O)C4=O)CC2)cc1)C1CCN(Cc2cc(C(F)(F)F)c3cn(-c4cccc([C@H](c5nncn5C)C5CCC5)c4)c(=O)n3c2)CC1 [Compound 138] | 
30 to 300 | 50 to 70 | CN(CCOC1CCN(Cc2cc(C(F)(F)F)c3cn(-c4cccc([C@H](c5nncn5C)C5CCC5)c4)c(=O)n3c2)CC1)C(=O)c1ccc(N2CCC(c3ccc4c(c3)CN([C@@H]3CCC(=O)NC3=O)C4=O)CC2)cc1 [Compound 151] | 
< 30 | > 70 | CN(C(=O)c1ccc(CN2CCN(c3ccc4c(c3)CN([C@H]3CCC(=O)NC3=O)C4=O)CC2)cc1)C1CCN(Cc2cc(C(F)(F)F)c3cn(-c4cccc([C@H](c5nncn5C)C5CCC5)c4)c(=O)n3c2)CC1 [Compound 160] | 
< 30 | > 70 | Cn1cnnc1[C@@H](c1cccc(-n2cc3c(C(F)(F)F)cc(CN4CCC(CCN5CCC(CC6CCN(c7ccc8c(c7)CN([C@H]7CCC(=O)NC7=O)C8=O)CC6)CC5)CC4)cn3c2=O)c1)C1CCC1 [Compound 164] | 
< 30 | > 70 | CN(CC1CCN(Cc2cc(C(F)(F)F)c3cn(-c4cccc(C5(Cc6nncn6C)COC5)c4)c(=O)n3c2)CC1)C(=O)c1ccc(N2CCN(c3ccc4c(c3)CN([C@H]3CCC(=O)NC3=O)C4=O)CC2)cc1 [Compound 166] | 
30 to 300 | 30 to 50 | CO[C@H]1C[C@@](c2cccc(-n3cc4c(C(F)(F)F)cc(CN5CCC(CN(C)C(=O)c6ccc(N7CCN(c8ccc9c(c8)CN([C@H]8CCC(=O)NC8=O)C9=O)CC7)cc6)CC5)cn4c3=O)c2)(c2nncn2C)C1 [Compound 169] | 
< 30 | > 70 | Cn1cnnc1[C@@H](c1cccc(-n2cc3c(C(F)(F)F)cc(CN4CCC(CC(=O)N5CCC(CC6CCN(c7ccc8c(c7)CN([C@H]7CCC(=O)NC7=O)C8=O)CC6)CC5)CC4)cn3c2=O)c1)C1CCC1 [Compound 176] | 
< 30 | 30 to 50 | Cn1cnnc1[C@@H](c1cccc(-n2cc3c(C(F)(F)F)cc(CN4CCC(CC(=O)N5CCC(c6ccc(-c7ccc8c(c7)CN([C@H]7CCC(=O)NC7=O)C8=O)cc6)CC5)CC4)cn3c2=O)c1)C1CCC1 [Compound 182] | 
< 30 | > 70 | CN(CC1CCN(Cc2cc3c(c(C(F)(F)F)c2)CN(c2cccc([C@H](c4nncn4C)C4CCC4)c2)C3=O)CC1)C(=O)c1ccc(N2CCN(c3ccc4c(c3)CN([C@H]3CCC(=O)NC3=O)C4=O)CC2)cc1 [Compound 184] | 
